This assay concerns Hsp90. Put plainly: Hsp90 binning reporter assay. The assay is classed as cell-based. Conditions: Saccharomyces cerevisiae, read-out: Hsp90 pathway inhibition IC50. The method, then:
Corning white, 384-well plates were obtained from Corning (Catalog No. 8867BC; Lot No. 22609019). Tropix Gal-Screen was obtained from Applied Biosystems (Catalog No. T2359; Lot No. 0903044).
SD Growth Media was obtained from MP Biomedical (Catalog No. 4027-012; Lot No. 119458). Complete Supplement minus adenine was obtained from Sunrise Science (Catalog No. 1029-100; Lot No. 070409). Deoxycorticosterone (DOC) steroid was obtained from Sigma. To prepare the assay media, 100 ml (20% (w/v) dextrose and 780 mg Complete Supplement) was added to 100 ml SD Growth Media. Water was added to a final volume of 1 liter, and the solution was filter sterilized.
For DOC media, 1 ml DOC was added to 100 ml SD-ADE media.
The following test strain was used in this study: Saccharomyces cerevisiae W303 reporter strain (ATCC 201238). […]
The OD 600 of 1 ml of culture in a cuvette was read using a standard optical density reader with growth medium as a background blank. […] Luminescence of the wells was read on a standard plate reader as a measure of relative fungal growth. Envision (Perkin Elmer) plate reader set-up: Top read; Luminescence filter (560 nm) at 0.1 seconds.
Potential inhibition of the Hsp90-based chaperone machinery was evaluated using yeast reporter assays involving the glucocorticoid hormone receptor and the tyrosine kinase, v-Src. […]

This passage reports IC50 results from US9738610B2, “Indazole derivatives and uses thereof” (Whitehead Institute for Biomedical Research, priority 2012, dated 2017).

By IC50 is commonly meant the point on the concentration scale where inhibition reaches its midpoint.

For `COC(=O)Cn1nc(-c2cccc(OC)c2)c2ccccc21` [Compound I-4, methyl 2-(3-(3-methoxyphenyl)-1H-indazol-1-yl)acetate], the IC50 is 4.18 µM.
